# Patent US20250115640A1, “NEUROPROTECTIVE POLYPEPTIDE COMPOUND AND APPLICATION THEREOF” (Innerse (Zhuhai) Pharmaceutical Co., Ltd., priority 2021, published 2025)
# Several values for one entry are separate records, joined by “and”; a condition that tells them apart may be missing. Equal values may be shown once. Entries after “also recorded” stand apart in the source; their conditions may differ. Square brackets hold non-standard residues; d marks the D form. Ends that are not written are not given here. Peptide text beside a SMILES is read from it. βAla = NCCC(=O)O
# How the values were obtained:
# [1] = Body weight of MCAO model animals (Example 6); type: in vivo, Sprague-Dawley (SD) rats; settings: individual animal
# Protocol: • Animals measured: all the surviving experimental animals planned to be measured; • Measurement time: the body weight was measured at least twice during the adaptation period, once 24 hours before surgery for grouping, and once 24 hours after surgery.
# Cerebral ischemia-reperfusion is an acute injury model, wherein the weight of experimental animals will drop dramatically after MCAO modeling. Thus, the weight of experimental animals is one of the most basic sensitive parameters to comprehensively reflect the health status of animals. In this experiment, the body weight of all the animals was monitored on the day before the surgery and on the first day after the surgery, and the changes of animal's body weight were observed and recorded.
# [2] = General status observation and autopsy findings of MCAO model animals (Example 6); type: in vivo, Sprague-Dawley (SD) rats; settings: 24 hours after administration; single animals
# Protocol: After the adaptation period, animals weighing 240-290 g were selected for dividing into groups for modeling. 24 hours after administration, the animal numbered 2M006 in the S3 group was found dead. […] The data of the above animals was not included in the final statistical analysis. The data of the remaining animals in each group was included in the final statistical analysis. The number of animals included in the final statistical analysis was 8 animals for the model control group, 7 animals for S3 group, 9 animals for the t-PA group and 7 animals for S3+t-PA group.
# • Animals observed: all the surviving animals planned to be observed; • Observation time: once a day, and the frequency can be increased if the animal starts to behave abnormal; • What were observed: including but not limited to general manifestations, behavioral status, eye, mouth, nose and mouth area, ear, hair and skin, feces, urine, genital organ and other toxic symptoms. A detailed description was required if there was any abnormality.
# [3] = test system: rat model of cerebral ischemia via middle cerebral artery occlusion (MCAO); test: Rat MCAO cerebral ischemia model, TTC staining, cerebral infarct volume (Example 5); type: in vivo, SD rats; settings: 3 mg/kg tail vein 1-2 h after ligation, TTC after 22-24 h
# Protocol: In order to determine use of the synthetic peptides provided herein in a neurological disease, SD rats were used to prepare a rat model of cerebral ischemia via middle cerebral artery occlusion (MCAO). These rats were injected intravenously 1-2 hours after ischemia, and subjected for a behavioral observation and scoring after 22-24 hours. After the behavioral observation, the rats were euthanized and their brains were removed, cut to sections and stained with TTC for quantitative analysis, and the cerebral infarct volume % was calculated. The experimental SD rats were weighed and anesthetized with chloral hydrate. After anesthesia, the limbs of the rats were fixed, and the rats were placed in a supine position, connected to the small-animal monitor, and monitored for important physiological parameters such as body temperature, blood pressure and heart rate, etc. The rats were shaved at neck and disinfected with 75% alcohol cotton ball. […] The experimental rats were monitored with the small-animal monitor to evaluate if their physiological parameters were normal, and the rats were placed on a small-animal electric blanket to keep their body temperature until they waked up and placed in animal cages. […] The quantitative analysis of photos after TTC staining was performed using Image J software. […]
# [4] = test system: rat model of cerebral ischemia via middle cerebral artery occlusion (MCAO); test: Rat MCAO cerebral ischemia model, behavioral observation and scoring 0-5 (Example 5); type: in vivo, SD rats; settings: 3 mg/kg tail vein, scoring 22-24 h after ligation, scale 0-5; for Behavioral score, mean value: group mean, 6 rats
# Protocol: In order to determine use of the synthetic peptides provided herein in a neurological disease, SD rats were used to prepare a rat model of cerebral ischemia via middle cerebral artery occlusion (MCAO). These rats were injected intravenously 1-2 hours after ischemia, and subjected for a behavioral observation and scoring after 22-24 hours. After the behavioral observation, the rats were euthanized and their brains were removed, cut to sections and stained with TTC for quantitative analysis, and the cerebral infarct volume % was calculated. The experimental SD rats were weighed and anesthetized with chloral hydrate. After anesthesia, the limbs of the rats were fixed, and the rats were placed in a supine position, connected to the small-animal monitor, and monitored for important physiological parameters such as body temperature, blood pressure and heart rate, etc. The rats were shaved at neck and disinfected with 75% alcohol cotton ball. A middle incision of about 2 cm length was then made on the neck of the rats, and the submandibular gland of the rats was bluntly separated while avoiding damage to the gland. Then, the left common carotid artery (CCA) of the rats was bluntly separated, and the internal carotid artery (ICA) and external carotid artery (ECA) were carefully separated upward along the CCA. Any damage to vagus nerves was avoided during the separation. The CCA and ICA were clamped respectively with two artery clamps, and the distal end of the ECA was cut off. A silicone suture emboli was inserted into the ECA “port” to the ICA artery clamp. Then the artery clamp was quickly loosened and the tip of the suture emboli was pushed forward through the artery clamp quickly before clamping the ICA again. […] The experimental rats were monitored with the small-animal monitor to evaluate if their physiological parameters were normal, and the rats were placed on a small-animal electric blanket to keep their body temperature until they waked up and placed in animal cages. […]
# [5] = test system: acute ischemic stroke due to large vessel occlusion; settings: cited from earlier work
Compound,"Body weight D 2, individual animals ([1]; after surgery and administration)","Body weight D 0, individual animals ([1]; before surgery (baseline))",Death and autopsy findings in animals excluded from statistical analysis [2],"Cerebral infarct volume (TTC quantification), mean value ([3]; group mean, 6 rats)","Cerebral infarct volume (TTC quantification), individual rats No. 1-6 ([3]; individual rat, listed as S1(NA1))","Behavioral score, mean value [4]","Behavioral score, mean value ([4]; listed as NA1)","Behavioral score, individual rats No. 1-6 ([4]; individual rat)","Serious adverse events ([5]; human, in vivo)","Proportion of patients with an mRS score of 0-2 within 90 days ([5]; single dose of 2.6 mg/kg, maximum 270 mg, 549 patients, placebo 59.2%)"
"CC[C@H](C)[C@H](NC(=O)[C@H](CO)NC(=O)[C@H](CO)NC(=O)[C@H](CC(C)C)NC(=O)[C@H](CCCCN)NC(=O)[C@H](Cc1c[nH]cn1)NC(=O)CCN)C(=O)N[C@@H](CCC(=O)O)C(=O)N[C@@H](CO)C(=O)N[C@@H](CC(=O)O)C(=O)N[C@H](C(=O)O)C(C)C [Example S3, beta-Ala-His-Lys-Leu-Ser-Ser-Ile-Glu-Ser-Asp-Val] (H-[βAla]HKLSSIESDV-OH)",232.57 g and 249.67 g and 201.22 g and 228.45 g and 202.45 g and 195.33 g and 217.36 g,281.72 g and 266.48 g and 253.24 g and 286.91 g and 258.64 g and 247.34 g and 273.73 g,found dead; also recorded: subarachnoid hemorrhage,–,–,–,–,–,–,–
YGRKKRRQRRRKLSSIESDV [Example S1],–,–,–,0.157,0.187 and 0.218 and 0.153 and 0.145 and 0.107 and 0.134,2.0,2.0±0.6,2 (4×) and 1 and 3,occurred equally between groups,61.4%
